1 substance from US20100104521A1, “COSMETIC AND/OR PHARMACEUTICAL COMPOSITION COMPRISING AS AN ACTIVE PRINCIPLE AT LEAST ONE PEPTIDE AND USE OF THIS PEPTIDE” (SOCIETE D'EXTRACTION DES PRINCIPES ACTIFS SA (VINCIENCE), priority 2006, published 2010) can be followed below.

The subject of this experiment is melanocytes of human skin biopsies. The experiment is described as follows: Ex vivo study of the effect of the peptide on the synthesis of melanin (human skin biopsies, Fontana-Masson staining). The note with it: human skin biopsies 6 mm in ex vivo culture, two applications daily, peptide at 1% starting with a 50-ppm solution, 48 hours. In kind it is cell-based. How it is done: The aim of this ex vivo study is to highlight the increase in melanization produced by the peptides according to the invention.
Protocol: Biopsies of human skin 6 mm in diameter are held in an ex vivo culture in the presence of a specific medium (1 g/L DMEM, Ham's F-12, SVF, and antibiotics) on inserts deposited on 6-well plates. […] The duration of the treatment is 48 hours. The biopsies are subsequently fixed in 9% formaldehyde and NaCl (150 mM) for 10 hours and then enclosed in paraffin. Thin-sections of the skin 3 μm thick are then made, and the melanin is specifically stained by the Fontana-Masson technique. […] Conclusions: The peptide of sequence of SEQ ID No. 4 induces a strong increase in the synthesis of melanin by the melanocytes and stimulates the entire process of melanin distribution in the epidermis.

For the substance Trp-Lys-Leu-Asp (WKLD) [SEQ ID No. 4], the “location / distribution of melanin in the epidermis” value (Fontana-Masson staining) was “located in the basal layer but is also transported into the supra-basal layers”. The “intensity of melanin coloration of skin thin-sections (Fontana-Masson technique)” value (versus biopsies without application) is reported as “coloration of clearly increased intensity”.
